Data set [1] is described as follows: Cell viability for BIA and analogues, HT1080 cell line. To be noted: human, HT1080 fibrosarcoma cells; for viability at 5 µM: HT1080, 5 uM; for viability at 10 µM: HT1080, 10 uM. Type of data set: cell-based. Here is the method:
HT1080 MDA-MB-231, SKBR3 and MCF7 cell lines were cultured in a 37° C., 5% CO2 incubator in a medium with 10% Fetal Bovine Serum, 1% penicillin and streptomycin (100 U) added to DMEM.
(§1) The compound prepared in Example 15 was treated with HT1080 fibrosarcoma cell line at 5 μM and 10 μM and cell viability was measured. In addition, the compound prepared in Example 15 on the DU145 prostate cancer cell line was treated with 10 μM, 20 μM, and 30 μM and cell viability was measured (see Table 2, Table 3).

The nature of data set [2]: Cell viability for BIA and analogues, DU145 cell line. Type of data set: cell-based. To be noted: human; for viability at 10 µM: DU145, 10 uM; for viability at 20 µM: DU145, 20 uM; for viability: DU145, 50 rpm. Here is the method:
as §1

As a reminder, the viability is a read-out of living cells in per cent, often relative to untreated cells.

With `Nc1ccccc1-c1cc(-c2cccc(C(F)(F)F)c2)ncn1`, in data set [1], the viability at 5 µM worked out at 99.6% and the viability at 10 µM worked out at 97.3%. For the same compound, in data set [2], the viability at 10 µM is 95.3%, the viability at 20 µM came to 87.8% and the viability was 74.8%.
As to `Nc1ccccc1C(=O)/C=C/c1ccccc1` [GM-90130, (E)-1-(2-aminophenyl)-3-phenylprop-2-en-1-one], in data set [1], the viability at 5 µM worked out at 99.5% and the viability at 10 µM worked out at 31.7%. Also, in data set [2], the viability at 10 µM came to 78.7%, the viability at 20 µM was 79.4% and the viability amounted to 48.3%.
For `COc1cccc(/C=C/C(=O)c2ccccc2N)c1` [GM-90131, (E)-1-(2-aminophenyl)-3-(3-methoxyphenyl)prop-2-en-1-one], in data set [1], the viability at 5 µM was 101% and the viability at 10 µM was found to be 37.4%. For the same compound, in data set [2], the viability at 10 µM turned out to be 81.5%, the viability at 20 µM came out at 74% and the viability amounted to 33.2%.
For `Nc1ccccc1C(=O)/C=C/c1cccc(Br)c1` [GM-90132, (E)-1-(2-aminophenyl)-3-(3-bromophenyl)prop-2-en-1-one], in data set [1], the viability at 5 µM worked out at 100% and the viability at 10 µM worked out at 30.9%. In addition, in data set [2], the viability at 10 µM amounted to 81.5%, the viability at 20 µM is 71.2% and the viability was found to be 19.9%.
For `Nc1ccccc1C(=O)/C=C/c1ccc([N+](=O)[O-])cc1` [GM-90133, (E)-1-(2-aminophenyl)-3-(4-nitrophenyl)prop-2-en-1-one], in data set [1], the viability at 5 µM was determined as 101% and the viability at 10 µM worked out at 54.9%. In addition, in data set [2], the viability at 10 µM is 50.5%, the viability at 20 µM is 35.2% and the viability was found to be 26.8%.
Turning to `COc1ccccc1C(=O)/C=C/c1cccc([N+](=O)[O-])c1` [GM-90134, (E)-1-(2-methoxyphenyl)-3-(3-nitrophenyl)prop-2-en-1-one], in data set [1], the viability at 5 µM turned out to be 99.1% and the viability at 10 µM is 96.6%. In addition, in data set [2], the viability at 10 µM is 31.5%, the viability at 20 µM is 25.4% and the viability was determined as 22.8%.
For `O=C(/C=C/c1cccc([N+](=O)[O-])c1)c1ccccc1O` [GM-90135, (E)-1-(2-hydroxyphenyl)-3-(3-nitrophenyl)prop-2-en-1-one], in that order: 99.9%, 96.8%, 88.5%, 87.3% and 64.5%.
Take `Nc1ccccc1C(=O)/C=C/c1ccc(OC(F)(F)F)cc1` [GM-90222, (E)-1-(2-aminophenyl)-3-(4-(trifluoromethoxy)phenyl)prop-2-en-1-one]: in data set [1], the viability at 5 µM is 109% and the viability at 10 µM is 92%. Besides, in data set [2], the viability at 10 µM was determined as 40.7%, the viability at 20 µM was determined as 31.3% and the viability was 28.9%.
For the compound `Nc1ccccc1C(=O)/C=C/c1ccc(F)cc1F` [GM-90223, (E)-1-(2-aminophenyl)-3-(2,4-difluorophenyl)prop-2-en-1-one], in data set [1], the viability at 5 µM came out at 93.8% and the viability at 10 µM was found to be 86%. In data set [2], the viability at 10 µM turned out to be 26.5%, the viability at 20 µM was found to be 26.3% and the viability is 21.1%.
`CCOc1cc(F)ccc1/C=C/C(=O)c1ccccc1N` [GM-90224, (E)-1-(2-aminophenyl)-3-(2-ethoxy-4-fluorophenyl)prop-2-en-1-one]: in data set [1], the viability at 5 µM was found to be 108% and the viability at 10 µM was 99.7%. Also, in data set [2], the viability at 10 µM is 90.5%, the viability at 20 µM came to 90% and the viability came to 75.8%.
On to `Nc1ccccc1C(=O)/C=C/c1ccc2ccccc2c1` [GM-90225, (E)-1-(2-aminophenyl)-3-(naphthalen-2-yl)prop-2-en-1-one], for which, in data set [1], the viability at 5 µM turned out to be 70.5% and the viability at 10 µM amounted to 43.5%. In data set [2], the viability at 10 µM came out at 87.4%, the viability at 20 µM came to 79.4% and the viability stood at 71.2%.
With `Nc1ccccc1C(=O)/C=C/c1ccc(C(F)(F)F)cc1` [GM-90226, (E)-1-(2-aminophenyl)-3-(4-(trifluoromethyl)phenyl)prop-2-en-1-one], in data set [1], the viability at 5 µM came out at 83.9% and the viability at 10 µM was determined as 15.4%. Moreover, in data set [2], the viability at 10 µM amounted to 68.1%, the viability at 20 µM is 46.8% and the viability is 11.8%.
In the same order, the values of `Cc1ccc(/C=C/C(=O)c2ccccc2N)cc1` [GM-90227, (E)-1-(2-aminophenyl)-3-(p-tolyl)prop-2-en-1-one] are 108%, 96.3%, 43.3%, 36.1% and 28.2%.
With `CCOc1ccc([N+](=O)[O-])cc1/C=C/C(=O)c1ccccc1N` [GM-90229, (E)-1-(2-aminophenyl)-3-(2-ethoxy-5-nitrophenyl)prop-2-en-1-one], in data set [1], the viability at 5 µM turned out to be 64.4% and the viability at 10 µM is 15.7%. Further, in data set [2], the viability at 10 µM is 53.1%, the viability at 20 µM is 40.5% and the viability was found to be 21.1%.
Consider `CCOc1ccc([N+](=O)[O-])cc1C(O)CC(=O)c1ccccc1N` (centres unmarked) [GM-90230, 1-(2-aminophenyl)-3-(2-ethoxy-5-nitrophenyl)-3-hydroxypropan-1-one], for which, in data set [1], the viability at 5 µM amounted to 108% and the viability at 10 µM was 98.8%. Further, in data set [2], the viability at 10 µM was 66.3%, the viability at 20 µM was found to be 29.1% and the viability worked out at 29.3%.
In the same order, the values of `CC(C)(C)c1ccc(/C=C/C(=O)c2ccccc2N)cc1` [GM-90243, (E)-1-(2-aminophenyl)-3-(4-(tert-butyl)phenyl)prop-2-en-1-one] are 66.8%, 39.2%, 31.8%, 28.2% and 14.3%.
In the case of `COc1cc(N)c(C(=O)/C=C/c2cccc(Br)c2)cc1OC` [GM-90255, (E)-1-(2-amino-4,5-dimethoxyphenyl)-3-(3-bromophenyl)prop-2-en-1-one], in data set [1], the viability at 5 µM was 88.1% and the viability at 10 µM was determined as 33.4%. Moreover, in data set [2], the viability at 10 µM is 88.7%, the viability at 20 µM worked out at 70.2% and the viability worked out at 66.4%.
Turning to `COc1cccc(/C=C/C(=O)c2cc(OC)c(OC)cc2N)c1` [GM-90256, (E)-1-(2-amino-4,5-dimethoxyphenyl)-3-(3-methoxyphenyl)prop-2-en-1-one], in data set [1], the viability at 5 µM amounted to 82.4% and the viability at 10 µM is 46.3%. In data set [2], the viability at 10 µM was determined as 76.3%, the viability at 20 µM came out at 60.2% and the viability worked out at 54.9%.
For `Nc1ccccc1C(=O)/C=C/c1cc(O)cc(Br)c1` [GM-90281, (E)-1-(2-aminophenyl)-3-(3-bromo-5-hydroxyphenyl)prop-2-en-1-one], in data set [1], the viability at 5 µM came out at 11.4% and the viability at 10 µM is 11.1%. Further, in data set [2], the viability at 10 µM came out at 77.4%, the viability at 20 µM turned out to be 76.4% and the viability came out at 67%.

Values taken from patent US20240139125A1 (INDUSTRIAL COOPERATION FOUNDATION JEONBUK NATIONAL …, priority 2020, published 2024).
